# Measurements taken from US20240181125A1, “COMPOSITIONS AND METHODS FOR SCARLESS WOUND HEALING IN DIABETES” (Washington University, priority 2022, published 2024).
# Bridge positions count the residues as written; N and C are the ends. Peptide text beside a SMILES is read from it. * marks the point of attachment. FITC = O=C1OC2(c3ccc(O)cc3Oc3cc(O)ccc32)c2ccc(NC(=S)*)cc21
# Key:
# TGFβ1/p-Smad2/3 pathway = assay: Immunoblotting/IF of p-Smad2/3 and α-SMA in HDFs; type: cell-based, human
# Experimental: (§1) For in vitro tests, protein lysates were collected from HDFs. Pre-cooled cell scrapers were used to detach the cells, and the cells were re-suspended in RIPA lysis buffer with the inhibitor cocktail. For in vivo tests, wound skin tissues were washed three times with pre-cooled DPBS, dissected into small pieces, and re-suspended in RIPA lysis buffer containing protease and phosphatase inhibitors. Homogenization was then performed thereafter with an ultrasonic processor (Cole Parmer). After centrifugation at 12,000 g for 20 min, the supernatants were collected, and protein concentrations were measured using a Bradford protein assay kit (Bio-rad).
# (§2) The protein samples were separated by 10% Mini-PROTEAN TGX stain-free precast gels (Bio-rad) and transferred onto an immune-blot PVDF membrane. The blots were washed three times with DPBS containing 0.1% Tween 20 (PBST), blocked with 5% milk powder in PBST buffer for 40 min, and incubated with primary antibodies at specific dilutions overnight at 4° C. The primary antibodies included rabbit GAPDH antibody (1:5000, Cell signaling), rabbit anti-a-smooth muscle actin (α-SMA) antibody (1:2000, Cell signaling), rabbit anti-phospho-Smad2(Ser465/467)/Smad3 (Ser423/425) (1:500, Cell signaling), and rabbit anti-phospho-p38 (1:500, Cell signaling). The membranes were washed three times with PBST and incubated with horseradish peroxidase (HRP)-conjugated secondary antibodies (1:2500). Immunoblots were then washed with PBST and detected with a WesternBright HRP substrate detection kit (Advansta). The ChemiDoc XPS+system (Bio-rad) was used to image the blots.
# [1] = tested on: THP-1-derived CD86+M1 macrophages; assay: mRNA expression (RT-PCR), M1 macrophages; type: cell-based, human; details: high glucose and TGFβ1
# Experimental: Macrophages were derived from THP-1, a human monocytic cell line (ATCC). THP-1 cells were treated with 100 ng/ml phorbol 12-myristate 13-acetate (PMA, Millipore-Sigma, P1585) for 48 hours, followed by 24 hours in RPMI 1640 medium (ATCC) with 10% FBS and 1% P/S. To induce differentiation into M1 macrophages, the cells were treated with 100 pg/mL lipopolysaccharide (LPS, Millipore-Sigma) and 20 ng/ml interferon-gamma (IFN-γ, Millipore-Sigma) for 48 hours.
# To determine the mRNA expression of the cells (HDFs, HaCaTs, and HAECs) treated with TGFβ1 (10 ng/ml) or TGFβ1 (10 ng/ml)/PTβR2I (10 μg/mL) under high glucose conditions, RNA was extracted using Trizol (Invitrogen) and reverse transcribed using a cDNA synthesis kit (Applied Biosystems). Gene expression was performed by real-time RT-PCR, using Maxima SYBR Green/Fluorescein Master Mix (Thermofisher) and selected primer pairs, shown in Table 1 below. β-actin served as the housekeeping gene. The ΔΔCt method was used for data analysis.
# TGFβ1/p38 pathway = assay: Immunoblotting of p-p38 in HDFs; type: cell-based, human
# Experimental: as §1, §2
# [2] = tested on: human keratinocyte HaCaT cells; assay: Cytotoxicity of PTβR2I on HaCaT cells; type: cell-based; design: dose or concentration left out as unconfirmed; details: 1 to 100
smiles,measurement,setting,value
"CC(C)C[C@@H]1NC(=O)CNC(=O)[C@@H](NC(=O)[C@@H](N)CCC(=O)O)CSSC[C@@H](C(=O)N[C@@H](CCCCNC(=S)Nc2ccc3c(c2)C(=O)OC32c3ccc(O)cc3Oc3cc(O)ccc32)C(=O)O)NC(=O)[C@H](CC(C)C)NC(=O)[C@H](CCCNC(=N)N)NC(=O)[C@H](Cc2c[nH]c3ccccc23)NC(=O)[C@H](C(C)C)NC(=O)[C@H](CCCNC(=N)N)NC(=O)[C@H](CC(=O)O)NC(=O)[C@@H]2CCCN2C(=O)[C@H](CCCNC(=N)N)NC(=O)CNC(=O)[C@H](C(C)C)NC(=O)[C@@H]2CCCN2C(=O)[C@H](CC(C)C)NC1=O [PTβR2I, ECGLLPVGRPDRVWRLCK-FITC] (H-ECGLLPVGRPDRVWRLCK(FITC)-OH; disulfide 2-17; N-terminus and C-terminus assumed)","phosphorylation of Smad2/3, PTβR2I with TGFβ1 vs TGFβ1 alone",TGFβ1/p-Smad2/3 pathway; high glucose,no substantial difference
same,α-SMA+ myofibroblast formation in presence of TGFβ1,TGFβ1/p-Smad2/3 pathway; high glucose,regardless of the addition of PTβR2I
same,expression of downstream marker α-SMA,"TGFβ1/p-Smad2/3 pathway; high glucose, TGFβ1",did not alter
same,TGFβ1/p-Smad2/3 pathway,TGFβ1/p-Smad2/3 pathway; normal glucose,apparently inhibited
same,IL6 mRNA expression,[1],significantly reduced
same,PDGFBB gene expression,[1],significantly enhanced
same,p-p38 expression,"TGFβ1/p38 pathway; high glucose, with TGFβ1",significantly downregulated
same,p-p38,TGFβ1/p38 pathway; normal glucose,did not downregulate
same,cell viability,[2],no decrease in viability
